Results from the NIST ThermoML archive (doi:10.1021/je049671t).

Assay: xn = mol fraction of the nth substance listed
Settings: Liquid, Vibrating tube method

CC(C)C [2-methylpropane] + CCCC
Settings	mass density [kg/m3]
240 K, 468.1 kPa, x2 = 0.5	626.35
240 K, 481.6 kPa, x2 = 0.25	621.79
240 K, 499 kPa, x2 = 0.75	631.33
240 K, 989.5 kPa, x2 = 0.5	626.9
240 K, 999.5 kPa, x2 = 0.25	622.36
240 K, 1001 kPa, x2 = 0.75	631.85
240 K, 1472.5 kPa, x2 = 0.5	627.41
240 K, 1500.2 kPa, x2 = 0.75	632.38
240 K, 1503.1 kPa, x2 = 0.25	622.9
240 K, 1962.6 kPa, x2 = 0.5	627.92
240 K, 2001.8 kPa, x2 = 0.25	623.43
240 K, 2011.4 kPa, x2 = 0.75	632.88
240 K, 2468.8 kPa, x2 = 0.5	628.43
240 K, 2493.8 kPa, x2 = 0.25	623.95
240 K, 2505.1 kPa, x2 = 0.75	633.43
240 K, 2976.4 kPa, x2 = 0.5	628.95
240 K, 2987.3 kPa, x2 = 0.25	624.47
240 K, 3003.9 kPa, x2 = 0.75	633.91
240 K, 3446 kPa, x2 = 0.5	629.43
240 K, 3481.8 kPa, x2 = 0.25	624.99
240 K, 3507.2 kPa, x2 = 0.75	634.38
240 K, 3970.1 kPa, x2 = 0.25	625.5
240 K, 3982.7 kPa, x2 = 0.5	629.98
240 K, 4015.3 kPa, x2 = 0.75	634.92
240 K, 4467.2 kPa, x2 = 0.5	630.47
240 K, 4485.6 kPa, x2 = 0.25	626.03
240 K, 4509.6 kPa, x2 = 0.75	635.35
240 K, 4983.6 kPa, x2 = 0.5	630.99
240 K, 5011.3 kPa, x2 = 0.75	635.85
240 K, 5024.9 kPa, x2 = 0.25	626.58
240 K, 5486.4 kPa, x2 = 0.5	631.5
240 K, 5515.8 kPa, x2 = 0.75	636.31
240 K, 5519.2 kPa, x2 = 0.25	627.11
240 K, 5981.2 kPa, x2 = 0.5	631.99
240 K, 6023.5 kPa, x2 = 0.75	636.82
240 K, 6067.5 kPa, x2 = 0.25	627.64
240 K, 6486.1 kPa, x2 = 0.5	632.5
240 K, 6492.4 kPa, x2 = 0.75	637.29
240 K, 6517.4 kPa, x2 = 0.25	628.1
240 K, 6977 kPa, x2 = 0.25	628.56
240 K, 6981 kPa, x2 = 0.5	632.99
240 K, 6991.5 kPa, x2 = 0.75	637.75
260 K, 496.3 kPa, x2 = 0.75	610.36
260 K, 503.7 kPa, x2 = 0.25	600.66
260 K, 503.9 kPa, x2 = 0.5	605.31
260 K, 979.3 kPa, x2 = 0.25	601.29
260 K, 993.2 kPa, x2 = 0.75	610.92
260 K, 1011.2 kPa, x2 = 0.5	605.96
260 K, 1489.5 kPa, x2 = 0.75	611.52
260 K, 1490.8 kPa, x2 = 0.25	601.97
260 K, 1508.9 kPa, x2 = 0.5	606.59
260 K, 2002.5 kPa, x2 = 0.75	612.18
260 K, 2003.1 kPa, x2 = 0.25	602.64
260 K, 2010.9 kPa, x2 = 0.5	607.22
260 K, 2507.6 kPa, x2 = 0.5	607.84
260 K, 2510.1 kPa, x2 = 0.75	612.77
260 K, 2511.6 kPa, x2 = 0.25	603.29
260 K, 2993.6 kPa, x2 = 0.5	608.43
260 K, 2999.7 kPa, x2 = 0.25	603.92
260 K, 3016.5 kPa, x2 = 0.75	613.4
260 K, 3495.3 kPa, x2 = 0.75	613.93
260 K, 3505.2 kPa, x2 = 0.25	604.56
260 K, 3514 kPa, x2 = 0.5	609.08
260 K, 3991.1 kPa, x2 = 0.5	609.66
260 K, 4009.7 kPa, x2 = 0.75	614.5
260 K, 4014.1 kPa, x2 = 0.25	605.19
260 K, 4508.9 kPa, x2 = 0.5	610.27
260 K, 4519.2 kPa, x2 = 0.75	615.15
260 K, 4521 kPa, x2 = 0.25	605.82
260 K, 5018.2 kPa, x2 = 0.75	615.65
260 K, 5023.4 kPa, x2 = 0.25	606.44
260 K, 5026.4 kPa, x2 = 0.5	610.89
260 K, 5506.4 kPa, x2 = 0.25	607.02
260 K, 5512.2 kPa, x2 = 0.75	616.21
260 K, 5517.9 kPa, x2 = 0.5	611.47
260 K, 6004.4 kPa, x2 = 0.75	616.79
260 K, 6023 kPa, x2 = 0.5	612.08
260 K, 6028.5 kPa, x2 = 0.25	607.65
260 K, 6519.2 kPa, x2 = 0.25	608.25
260 K, 6526.2 kPa, x2 = 0.75	617.32
260 K, 6531.1 kPa, x2 = 0.5	612.67
260 K, 6987.3 kPa, x2 = 0.5	613.2
260 K, 7000.3 kPa, x2 = 0.25	608.81
260 K, 7024.3 kPa, x2 = 0.75	617.88
280 K, 491.4 kPa, x2 = 0.25	578.14
280 K, 494.5 kPa, x2 = 0.75	588.49
280 K, 514.1 kPa, x2 = 0.5	583.32
280 K, 997.4 kPa, x2 = 0.5	584.09
280 K, 997.5 kPa, x2 = 0.25	578.99
280 K, 997.9 kPa, x2 = 0.75	589.24
280 K, 1496 kPa, x2 = 0.25	579.79
280 K, 1499.8 kPa, x2 = 0.75	590.03
280 K, 1515.6 kPa, x2 = 0.5	584.89
280 K, 1990.8 kPa, x2 = 0.5	585.62
280 K, 1991.8 kPa, x2 = 0.75	590.76
280 K, 2009.2 kPa, x2 = 0.25	580.63
280 K, 2501 kPa, x2 = 0.75	591.51
280 K, 2510.6 kPa, x2 = 0.5	586.43
280 K, 2512.7 kPa, x2 = 0.25	581.42
280 K, 3001.9 kPa, x2 = 0.75	592.24
280 K, 3016.2 kPa, x2 = 0.5	587.2
280 K, 3023 kPa, x2 = 0.25	582.23
280 K, 3506.9 kPa, x2 = 0.25	582.98
280 K, 3511.3 kPa, x2 = 0.75	592.97
280 K, 3532.6 kPa, x2 = 0.5	587.97
280 K, 4008 kPa, x2 = 0.25	583.74
280 K, 4010.5 kPa, x2 = 0.75	593.64
280 K, 4012.8 kPa, x2 = 0.5	588.67
280 K, 4502.1 kPa, x2 = 0.75	594.34
280 K, 4504.4 kPa, x2 = 0.25	584.53
280 K, 4508.3 kPa, x2 = 0.5	589.4
280 K, 4994.2 kPa, x2 = 0.75	595.02
280 K, 5006.3 kPa, x2 = 0.25	585.27
280 K, 5025.7 kPa, x2 = 0.5	590.15
280 K, 5479.3 kPa, x2 = 0.5	590.82
280 K, 5523.8 kPa, x2 = 0.25	586.04
280 K, 5525.5 kPa, x2 = 0.75	595.77
280 K, 5942.8 kPa, x2 = 0.75	596.37
280 K, 5993.3 kPa, x2 = 0.5	591.55
280 K, 6024.7 kPa, x2 = 0.25	586.78
280 K, 6475.5 kPa, x2 = 0.75	597.09
280 K, 6510.8 kPa, x2 = 0.25	587.5
280 K, 6528.5 kPa, x2 = 0.5	592.3
280 K, 6953.9 kPa, x2 = 0.5	592.89
280 K, 6984.1 kPa, x2 = 0.25	588.18
280 K, 7039.4 kPa, x2 = 0.75	597.8
300 K, 312 kPa, x2 = 0.5	559.4
300 K, 502.9 kPa, x2 = 0.25	554.17
300 K, 505.7 kPa, x2 = 0.75	565.16
300 K, 510.2 kPa, x2 = 0.5	559.82
300 K, 983.9 kPa, x2 = 0.5	560.78
300 K, 999.4 kPa, x2 = 0.25	555.23
300 K, 1002.4 kPa, x2 = 0.75	566.11
300 K, 1493 kPa, x2 = 0.75	567.04
300 K, 1497.1 kPa, x2 = 0.25	556.26
300 K, 1509.8 kPa, x2 = 0.5	561.83
300 K, 1992.8 kPa, x2 = 0.5	562.77
300 K, 1997.4 kPa, x2 = 0.25	557.29
300 K, 2007.5 kPa, x2 = 0.75	568
300 K, 2498.6 kPa, x2 = 0.25	558.33
300 K, 2510.2 kPa, x2 = 0.75	568.9
300 K, 2513.9 kPa, x2 = 0.5	563.78
300 K, 2995.9 kPa, x2 = 0.75	569.79
300 K, 3011.4 kPa, x2 = 0.5	564.72
300 K, 3014 kPa, x2 = 0.25	559.36
300 K, 3476.1 kPa, x2 = 0.5	565.59
300 K, 3483.6 kPa, x2 = 0.75	570.68
300 K, 3510.6 kPa, x2 = 0.25	560.33
300 K, 3988.4 kPa, x2 = 0.5	566.54
300 K, 4007.7 kPa, x2 = 0.25	561.28
300 K, 4013.5 kPa, x2 = 0.75	571.62
300 K, 4453.4 kPa, x2 = 0.5	567.4
300 K, 4467 kPa, x2 = 0.75	572.38
300 K, 4513.9 kPa, x2 = 0.25	562.25
300 K, 4997.8 kPa, x2 = 0.75	573.31
300 K, 5016.3 kPa, x2 = 0.25	563.17
300 K, 5026.1 kPa, x2 = 0.5	568.4
300 K, 5472.7 kPa, x2 = 0.5	569.19
300 K, 5473.2 kPa, x2 = 0.75	574.11

mass density [kg/m3]
Settings	240 K	260 K	280 K
x2 = 0.25	621.33	600.04	577.61
x2 = 0.5	625.96	604.76	582.79
x2 = 0.75	630.89	609.84	588.07
